Ends that are not written are not given here.
Key:
Type in all cases: cell-based
[1] = tested on: Enterococcus faecium clinical isolate 1,040
Experimental: (§1) For the clinical isolates, we used 20 different isolates from the Public Health Reference Laboratory collection of the Secretaría de Salud del Distrito (SdSD; Bogotá, Colombia). The samples were collected from June to December 2016. For each isolate, the patient parameters (age, gender and location) and the culture site were recorded for epidemiologic monitoring (Table 1). All isolates had been previously tested for antibiotic sensitivity at the Public Health Microbiology Laboratory using either the Phoenix™ system (Gram-positive) or the VITEK 2 system (Gram-negative).
(§2) We screened all five peptides against the ATCC reference strains and the clinical isolates according to Method M7-A7 of the National Committee for Clinical Laboratory Standards (CLSI, [2007]). The MIC50 and MBC values were determined using a broth microdilution and growth inhibition method previously reported by Leon-Calvijo et al. ([2015]), with some modifications (Wiegand et al., [2008]). Briefly, the MIC50 experiments comprised a liquid-inhibition growth assay in a sterile, untreated, 96-well flat-bottom tissue culture plate. The bacteria were cultured overnight n Mueller Hinton agar; three colonies were transferred to 8 mL of Mueller Hilton broth and incubated at 37°C until the mid-exponential phase of growth. The turbidity of the cultures was measured and adjusted spectrophotometrically to a McFarland standard of 0.5, and then diluted to a final concentration of 5 × 10^7 colony forming units (CFU) per well. Stock solutions (2,000 μM) of each test peptide were serially diluted to final concentrations (per well) of 200, 100, 50, 25, 12.5, and 6.25 μM. Each concentration was evaluated in duplicate and each assay was performed in triplicate.
(§3) Wells containing Mueller Hilton broth with bacterial inoculum only served as bacterial-growth controls. Additional controls included Mueller Hilton broth alone (as blank) and Mueller Hilton broth with ciprofloxacin (2 μg/mL; as positive control). The microplate was incubated for 24 h at 37°C, and growth inhibition was measured by monitoring the optical density at 620 nm (OD620). The MIC50 was defined as the peptide concentration at which bacterial growth was inhibited by 50%.
(§4) To determine the MBC, an aliquot from each well of the MIC50 assay was spread onto Mueller Hilton agar. After 18 h at 37°C, the concentration that inhibited bacterial growth was determined. Each of these tests was performed four times. MBC was defined as the lowest concentration of peptide at which the number of bacteria was reduced by 99.9% in vitro (European Committee for Antimicrobial Susceptibility Testing, [2000]).

[2] = tested on: Enterococcus faecium clinical isolate 1,225
Experimental: as §1, §2, §3, §4

[3] = tested on: Enterococcus faecium clinical isolate 1,461
Experimental: as §1, §2, §3, §4

[4] = tested on: Enterococcus faecium clinical isolate 1,462
Experimental: as §1, §2, §3, §4

[5] = tested on: Enterococcus faecium clinical isolate 550
Experimental: as §1, §2, §3, §4

[6] = tested on: Klebsiella pneumoniae clinical isolate 49,644
Experimental: as §1, §2, §3, §4

[7] = tested on: Klebsiella pneumoniae clinical isolate 50,181
Experimental: as §1, §2, §3, §4

[8] = tested on: Klebsiella pneumoniae clinical isolate 51,009
Experimental: as §1, §2, §3, §4

[9] = tested on: Klebsiella pneumoniae clinical isolate 51,048
Experimental: as §1, §2, §3, §4

[10] = tested on: Pseudomonas aeruginosa clinical isolate 48,220
Experimental: as §1, §2, §3, §4

[11] = tested on: Pseudomonas aeruginosa clinical isolate 48,221
Experimental: as §1, §2, §3, §4

[12] = tested on: Pseudomonas aeruginosa clinical isolate 48,458
Experimental: as §1, §2, §3, §4

[13] = tested on: Pseudomonas aeruginosa clinical isolate 48,526
Experimental: as §1, §2, §3, §4

[14] = tested on: Staphylococcus aureus clinical isolate 43,062
Experimental: as §1, §2, §3, §4

[15] = tested on: Staphylococcus aureus clinical isolate 43,337
Experimental: as §1, §2, §3, §4

[16] = tested on: Staphylococcus aureus clinical isolate 48,575
Experimental: as §1, §2, §3, §4

[17] = tested on: Staphylococcus aureus clinical isolate 48,577; conditions: clinical isolate 48,577, 18 h
Experimental: as §1, §2, §3, §4

- MIC50 ([1]; clinical isolate 1,040, 24 h): >100 µM
- MIC50 ([2]; clinical isolate 1,225, 24 h): >100 µM
- MIC50 ([3]; clinical isolate 1,461, 24 h): >100 µM
- MIC50 ([4]; clinical isolate 1,462, 24 h): 5.7 µM
- MIC50 ([5]; clinical isolate 550, 24 h): >100 µM
- MIC50 ([6]; clinical isolate 49,644, 24 h): 12.5 µM
- MIC50 ([7]; clinical isolate 50,181, 24 h): >100 µM
- MIC50 ([8]; clinical isolate 51,009, 24 h): 25.6 µM
- MIC50 ([9]; clinical isolate 51,048, 24 h): 11.7 µM
- MIC50 ([10]; clinical isolate 48,220, 24 h): >100 µM
- MIC50 ([11]; clinical isolate 48,221, 24 h): >100 µM
- MIC50 ([12]; clinical isolate 48,458, 24 h): >100 µM
- MIC50 ([13]; clinical isolate 48,526, 24 h): >100 µM
- MIC50 ([14]; clinical isolate 43,062, 24 h): 50.4 µM
- MIC50 ([15]; clinical isolate 43,337, 24 h): 13.0 µM
- MIC50 ([16]; clinical isolate 48,575, 24 h): 36.5 µM
Sequence: RWQWRWQWR [PLS]
- MBC ([1]; clinical isolate 1,040, 18 h): >100 µM
- MBC ([2]; clinical isolate 1,225, 18 h): 100.0 µM
- MBC ([3]; clinical isolate 1,461, 18 h): 100.0 µM
- MBC ([4]; clinical isolate 1,462, 18 h): 100.0 µM
- MBC ([5]; clinical isolate 550, 18 h): 100.0 µM
- MBC ([6]; clinical isolate 49,644, 18 h): 100.0 µM
- MBC ([7]; clinical isolate 50,181, 18 h): >100 µM
- MBC ([8]; clinical isolate 51,009, 18 h): 100.0 µM
- MBC ([9]; clinical isolate 51,048, 18 h): >100 µM
- MBC ([10]; clinical isolate 48,220, 18 h): >100 µM
- MBC ([11]; clinical isolate 48,221, 18 h): >100 µM
- MBC ([12]; clinical isolate 48,458, 18 h): >100 µM
- MBC ([13]; clinical isolate 48,526, 18 h): 100.0 µM
- MBC ([14]; clinical isolate 43,062, 18 h): 100.0 µM
- MBC ([15]; clinical isolate 43,337, 18 h): 50.0 µM
- MBC ([16]; clinical isolate 48,575, 18 h): 100.0 µM
- MBC [17]: 100.0 µM

Source: article PMC5840262, “Design, Synthesis and Evaluation of Branched RRWQWR-Based Peptides as Antibacterial Agents Against Clinically Relevant Gram-Positive and Gram-Negative Pathogens” (Frontiers in Microbiology, 2018)
